Target: T1, human capsaicin receptor (Homo sapiens, UniProt Q8NER1)
T1 construct: A cDNA encoding full length human capsaicin receptor recited in U.S. Pat. No. 6,482,611 was subcloned in the plasmid pBK-CMV; expressed in transfected cells
Test: Calcium mobilization assay (Example 6)
Type: cell-based
Details: concentration required to provide a 50% decrease in the fluorescence response of cells exposed to one IC50 of capsaicin
Procedure, shortened: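 HEK293 clonal lines stably expressing full-length human capsaicin receptor, Fluo-3 AM loaded in KRH buffer pH 7.4. Compounds (final 1-5 μM) preincubated 0.5-6 h at room temperature in the dark, then capsaicin added at its predetermined IC50 concentration. FLIPR calcium signal at 30-60 s; IC50 = antagonist concentration giving 50% decrease.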

T1 sequence (Q8NER1 whole entry): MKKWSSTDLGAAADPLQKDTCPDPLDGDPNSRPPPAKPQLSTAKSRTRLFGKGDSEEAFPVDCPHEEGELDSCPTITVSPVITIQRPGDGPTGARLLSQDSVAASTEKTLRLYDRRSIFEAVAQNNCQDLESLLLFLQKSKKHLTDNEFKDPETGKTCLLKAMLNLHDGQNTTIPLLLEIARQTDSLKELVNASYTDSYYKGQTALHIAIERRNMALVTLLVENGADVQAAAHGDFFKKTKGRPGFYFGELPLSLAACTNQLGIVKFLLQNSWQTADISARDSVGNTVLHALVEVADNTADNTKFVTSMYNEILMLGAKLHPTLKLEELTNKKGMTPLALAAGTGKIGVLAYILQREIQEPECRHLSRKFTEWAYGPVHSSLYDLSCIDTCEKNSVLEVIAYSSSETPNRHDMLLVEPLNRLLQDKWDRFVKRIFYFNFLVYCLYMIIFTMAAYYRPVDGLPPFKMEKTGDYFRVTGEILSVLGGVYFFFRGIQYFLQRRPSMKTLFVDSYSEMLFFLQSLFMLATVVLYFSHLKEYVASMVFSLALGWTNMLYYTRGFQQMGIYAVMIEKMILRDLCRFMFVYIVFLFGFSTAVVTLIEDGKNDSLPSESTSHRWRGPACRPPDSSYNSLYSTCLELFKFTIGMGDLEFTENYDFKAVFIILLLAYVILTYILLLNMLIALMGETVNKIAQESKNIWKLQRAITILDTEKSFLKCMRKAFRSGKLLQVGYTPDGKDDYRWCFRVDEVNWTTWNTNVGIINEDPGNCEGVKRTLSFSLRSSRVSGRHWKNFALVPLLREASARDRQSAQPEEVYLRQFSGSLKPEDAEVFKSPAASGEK

| SMILES | IC50 |
| --- | --- |
| COCc1cc(Nc2ccc(F)cc2)c2ccc(-c3ncccc3C(F)(F)F)nc2n1 [Compound 9, N-(4-fluorophenyl)-2-(methoxymethyl)-7-[3-(trifluoromethyl)pyridin-2-yl]-1,8-naphthyridin-4-amine] | ≤ 1 µM |
| CCCOCc1cc(Nc2ccc(C(F)(F)F)cc2)c2ccc(-c3ncccc3C(F)(F)F)nc2n1 [Compound 43, 2-(propoxymethyl)-N-[4-(trifluoromethyl)phenyl]-7-[3-(trifluoromethyl)pyridin-2-yl]-1,8-naphthyridin-4-amine] | ≤ 1 µM |
| CC(C)(C)c1ccc(Nc2cc(N3CCCC3)nc3cc(-c4ncccc4C(F)(F)F)ccc23)cc1 [Compound 28, N-(4-tert-butylphenyl)-2-pyrrolidin-1-yl-7-[3-(trifluoromethyl)pyridin-2-yl]quinolin-4-amine] | ≤ 1 µM |
| CC(=O)c1ccc(Nc2cc(COCC(C)C)nc3nc(-c4ncccc4Cl)ccc23)cc1 [Compound 63, 1-(4-{[7-(3-chloropyridin-2-yl)-2-(isobutoxymethyl)-1,8-naphthyridin-4-yl]amino}phenyl)ethanone] | ≤ 1 µM |
| COCc1cc(Nc2ccc(C(C)(C)C)cc2)c2ccc(-c3ncccc3C(F)(F)F)nc2n1 [Compound 3] | ≤ 1 µM |
| CC(C)CCOCc1cc(Nc2ccc(C(F)(F)F)cc2)c2ccc(-c3ncccc3C(F)(F)F)nc2n1 [Compound 42, 2-[(isopentyloxy)methyl]-N-[4-(trifluoromethyl)phenyl]-7-[3-(trifluoromethyl)pyridin-2-yl]-1,8-naphthyridin-4-amine] | ≤ 1 µM |
| CC(=O)c1ccc(Nc2cc(COCC(C)C)nc3nc(-c4ncccc4C(F)(F)F)ccc23)cc1 [Compound 56, 1-[4-({2-(isobutoxymethyl)-7-[3-(trifluoromethyl)pyridin-2-yl]-1,8-naphthyridin-4-yl}amino)phenyl]ethanone] | ≤ 1 µM |
| CC(C)COCc1cc(Nc2ccc(S(=O)(=O)N(C)C)cc2)c2ccc(-c3ncccc3C(F)(F)F)nc2n1 [Compound 68, 4-({2-(isobutoxymethyl)-7-[3-(trifluoromethyl)pyridin-2-yl]-1,8-naphthyridin-4-yl]amino)-N,N-dimethylbenzenesulfonamide] | ≤ 1 µM |
| COCc1cc(Nc2ccc(Cl)cc2)c2ccc(-c3ncccc3C(F)(F)F)nc2n1 [Compound 8, N-(4-chlorophenyl)-2-(methoxymethyl)-7-[3-(trifluoromethyl)pyridin-2-yl]-1,8-naphthyridin-4-amine] | ≤ 1 µM |
| CC(C)COCc1cc(Nc2ccc(C(F)(F)F)cc2)c2ccc(-c3ncccc3C(F)(F)F)nc2n1 [Compound 7, 2-(isobutoxymethyl)-N-[4-(trifluoromethyl)phenyl]-7-[3-(trifluoromethyl)pyridin-2-yl]-1,8-naphthyridin-4-amine] | ≤ 1 µM |
| COCc1cc(Nc2ccc(C#N)cc2)c2ccc(-c3ncccc3C(F)(F)F)nc2n1 [Compound 11, 4-({2-(methoxymethyl)-7-[3-(trifluoromethyl)pyridin-2-yl]-1,8-naphthyridin-4-yl}amino)benzonitrile] | ≤ 1 µM |
| CCOc1cc(Nc2ccc(C(C)(C)C)cc2)c2ccc(-c3ncccc3C(F)(F)F)nc2n1 [Compound 37, N-(4-tert-butylphenyl)-2-ethoxy-7-[3-(trifluoromethyl)pyridin-2-yl]-1,8-naphthyridin-4-amine] | ≤ 1 µM |
| FC(F)(F)c1ccc(Nc2cc(Cl)nc3nc(-c4ncccc4C(F)(F)F)ccc23)cc1 [Compound 34, 2-chloro-N-[4-(trifluoromethyl)phenyl]-7-[3-(trifluoromethyl)pyridin-2-yl]-1,8-naphthyridin-4-amine] | ≤ 1 µM |

Results, then the compound that gave them:

| IC50 | SMILES |
| --- | --- |
| ≤ 1 µM | CC(C)CN(C)Cc1cc(Nc2ccc(C(F)(F)F)cc2)c2ccc(-c3ncccc3C(F)(F)F)nc2n1 [Compound 60, 2-{[isobutyl(methyl)amino]methyl}-N-[4-(trifluoromethyl)phenyl]-7-[3-(trifluoromethyl)pyridin-2-yl]-1,8-naphthyridin-4-amine] |
| ≤ 1 µM | Cc1cccnc1-c1ccc2c(Nc3ccc(C(F)(F)F)cn3)ccnc2n1 [Compound 135, 7-(3-methylpyridin-2-yl)-N-[5-(trifluoromethyl)pyridin-2-yl]-1,8-naphthyridin-4-amine] |
| ≤ 1 µM | CCc1cc(Nc2ccc(C(F)(F)F)cn2)c2ccc(-c3ncccc3C(F)(F)F)nc2n1 [Compound 110, 2-ethyl-7-[3-(trifluoromethyl)pyridin-2-yl]-N-[5-(trifluoromethyl)pyridin-2-yl]-1,8-naphthyridin-4-amine] |
| ≤ 1 µM | CC(C)CNc1cc(Nc2ccc(C(F)(F)F)cn2)c2ccc(-c3ncccc3C(F)(F)F)nc2n1 [Compound 130, N~2~-isobutyl-7-[3-(trifluoromethyl)pyridin-2-yl]-N~4~-[5-(trifluoromethyl)pyridin-2-yl]-1,8-naphthyridine-2,4-diamine] |
| ≤ 1 µM | CC1CCCN1Cc1cc(Nc2ccc(C(F)(F)F)cn2)c2ccc(-c3ncccc3C(F)(F)F)nc2n1 (stereo not drawn) [Compound 93, 2-[(2-methylpyrrolidin-1-yl)methyl]-7-[3-(trifluoromethyl)pyridin-2-yl]-N-[5-(trifluoromethyl)pyridin-2-yl]-1,8-naphthyridin-4-amine] |
| ≤ 1 µM | FC(F)(F)c1ccc(Nc2ccnc3cc(-c4ncccc4C(F)(F)F)ccc23)nc1 [Compound 109, 7-[3-(trifluoromethyl)pyridin-2-yl]-N-[5-(trifluoromethyl)pyridin-2-yl]quinolin-4-amine] |
| ≤ 1 µM | FC(F)(F)c1cnc(Nc2ccnc3nc(-c4ncccc4Cl)ccc23)cn1 [Compound 138, 7-(3-chloropyridin-2-yl)-N-[5-(trifluoromethyl)pyrazin-2-yl]-1,8-naphthyridin-4-amine] |
| ≤ 1 µM | CCCc1cc(Nc2ccc(C(C)(C)O)cn2)c2ccc(-c3ncccc3C(F)(F)F)nc2n1 [Compound 117, 2-[6-({2-propyl-7-[3-(trifluoromethyl)pyridin-2-yl]-1,8-naphthyridin-4-yl}amino)pyridin-3-yl]propan-2-ol] |
| ≤ 1 µM | Cc1ccc(Nc2cc(C(C)C)nc3nc(-c4ncccc4C(F)(F)F)ccc23)nc1 [Compound 103, 2-isopropyl-N-(5-methylpyridin-2-yl)-7-[3-(trifluoromethyl)pyridin-2-yl]-1,8-naphthyridin-4-amine] |
| ≤ 1 µM | CC(C)c1cc(Nc2ccc(C#N)cn2)c2ccc(-c3ncccc3C(F)(F)F)nc2n1 [Compound 104, 6-({2-isopropyl-7-[3-(trifluoromethyl)pyridin-2-yl]-1,8-naphthyridin-4-yl}amino)nicotinonitrile] |
| ≤ 1 µM | FC(F)(F)c1ccc(Nc2cc(CN3CCCC3)nc3nc(-c4ncccc4C(F)(F)F)ccc23)nc1 [Compound 95, 2-(pyrolidin-1-ylmethyl)-7-[3-(trifluoromethyl)pyridin-2-yl]-N-[5-(trifluoromethyl)pyridin-2-yl]-1,8-naphthyridin-4-amine] |
| ≤ 1 µM | COCCN(CCOC)Cc1cc(Nc2ccc(C(F)(F)F)cc2)c2ccc(-c3ncccc3C(F)(F)F)nc2n1 [Compound 50, 2-{[bis(2-methoxyethyl)amino]methyl}-N-[4-(trifluoromethyl)phenyl]-7-[3-(trifluoromethyl)pyridin-2-yl]-1,8-naphthyridin-4-amine] |
| ≤ 1 µM | FC(F)(F)c1ccc(Nc2cc(C3CCC3)nc3nc(-c4ncccc4C(F)(F)F)ccc23)nc1 [Compound 98, 2-cyclobutyl-7-[3-(trifluoromethyl)pyridin-2-yl]-N-[5-(trifluoromethyl)pyridin-2-yl]-1,8-naphthyridin-4-amine] |
| ≤ 1 µM | FC(F)(F)c1cccnc1-c1ccc2c(Nc3ccc(Cl)cn3)ccnc2n1 [Compound 139, N-(5-chloropyridin-2-yl)-7-[3-(trifluoromethyl)pyridin-2-yl]-1,8-naphthyridin-4-amine] |
| ≤ 1 µM | CC(=O)COCc1cc(Nc2ccc(C(F)(F)F)cc2)c2ccc(-c3ncccc3C(F)(F)F)nc2n1 [Compound 67, 1-({4-{[4-(trifluoromethyl)phenyl]amino}-7-[3-(trifluoromethyl)pyridin-2-yl]-1,8-naphthyridin-2-yl}methoxy)acetone] |
| ≤ 1 µM | CN(Cc1cc(Nc2ccc(C(F)(F)F)cc2)c2ccc(-c3ncccc3C(F)(F)F)nc2n1)S(C)(=O)=O [Compound 70, N-methyl-N-({4-{[4-(trifluoromethyl)phenyl]amino}-7-[3-(trifluoromethyl)pyridin-2-yl]-1,8-naphthyridin-2-yl}methyl)methanesulfonamide] |
| ≤ 1 µM | CC(C)CNCc1cc(Nc2ccc(C(F)(F)F)cc2)c2ccc(-c3ncccc3C(F)(F)F)nc2n1 [Compound 59, 2-[(isobutylamino)methyl]-N-[4-(trifluoromethyl)phenyl]-7-[3-(trifluoromethyl)pyridin-2-yl]-1,8-naphthyridin-4-amine] |
| ≤ 1 µM | FC(F)(F)c1ccc(Nc2ccnc3nc(-c4ncccc4Cl)ccc23)nc1 [Compound 136, 7-(3-chloropyridin-2-yl)-N-[5-(trifluoromethyl)pyridin-2-yl]-1,8-naphthyridin-4-amine] |
| ≤ 1 µM | FC(F)(F)c1ccc(Nc2ccnc3nc(-c4ncccc4C(F)(F)F)ccc23)nc1 [Compound 106, 7-[3-(trifluoromethyl)pyridin-2-yl]-N-[5-(trifluoromethyl)pyridin-2-yl]-1,8-naphthyridin-4-amine] |
| ≤ 1 µM | CC(C)c1cc(Nc2ccc(Cl)cn2)c2ccc(-c3ncccc3C(F)(F)F)nc2n1 [Compound 105, N-(5-chloropyridin-2-yl)-2-isopropyl-7-[3-(trifluoromethyl)pyridin-2-yl]-1,8-naphthyridin-4-amine] |
